Results from paper PMC3331904 (2012).

Target: TORC1 (TOR complex 1 kinase) (Saccharomyces cerevisiae, UniProt P35169)
Assay: TORC1 in vitro kinase assay
Assay type: biochemical

TORC1 (TOR complex 1 kinase), sequence (P35169 whole entry): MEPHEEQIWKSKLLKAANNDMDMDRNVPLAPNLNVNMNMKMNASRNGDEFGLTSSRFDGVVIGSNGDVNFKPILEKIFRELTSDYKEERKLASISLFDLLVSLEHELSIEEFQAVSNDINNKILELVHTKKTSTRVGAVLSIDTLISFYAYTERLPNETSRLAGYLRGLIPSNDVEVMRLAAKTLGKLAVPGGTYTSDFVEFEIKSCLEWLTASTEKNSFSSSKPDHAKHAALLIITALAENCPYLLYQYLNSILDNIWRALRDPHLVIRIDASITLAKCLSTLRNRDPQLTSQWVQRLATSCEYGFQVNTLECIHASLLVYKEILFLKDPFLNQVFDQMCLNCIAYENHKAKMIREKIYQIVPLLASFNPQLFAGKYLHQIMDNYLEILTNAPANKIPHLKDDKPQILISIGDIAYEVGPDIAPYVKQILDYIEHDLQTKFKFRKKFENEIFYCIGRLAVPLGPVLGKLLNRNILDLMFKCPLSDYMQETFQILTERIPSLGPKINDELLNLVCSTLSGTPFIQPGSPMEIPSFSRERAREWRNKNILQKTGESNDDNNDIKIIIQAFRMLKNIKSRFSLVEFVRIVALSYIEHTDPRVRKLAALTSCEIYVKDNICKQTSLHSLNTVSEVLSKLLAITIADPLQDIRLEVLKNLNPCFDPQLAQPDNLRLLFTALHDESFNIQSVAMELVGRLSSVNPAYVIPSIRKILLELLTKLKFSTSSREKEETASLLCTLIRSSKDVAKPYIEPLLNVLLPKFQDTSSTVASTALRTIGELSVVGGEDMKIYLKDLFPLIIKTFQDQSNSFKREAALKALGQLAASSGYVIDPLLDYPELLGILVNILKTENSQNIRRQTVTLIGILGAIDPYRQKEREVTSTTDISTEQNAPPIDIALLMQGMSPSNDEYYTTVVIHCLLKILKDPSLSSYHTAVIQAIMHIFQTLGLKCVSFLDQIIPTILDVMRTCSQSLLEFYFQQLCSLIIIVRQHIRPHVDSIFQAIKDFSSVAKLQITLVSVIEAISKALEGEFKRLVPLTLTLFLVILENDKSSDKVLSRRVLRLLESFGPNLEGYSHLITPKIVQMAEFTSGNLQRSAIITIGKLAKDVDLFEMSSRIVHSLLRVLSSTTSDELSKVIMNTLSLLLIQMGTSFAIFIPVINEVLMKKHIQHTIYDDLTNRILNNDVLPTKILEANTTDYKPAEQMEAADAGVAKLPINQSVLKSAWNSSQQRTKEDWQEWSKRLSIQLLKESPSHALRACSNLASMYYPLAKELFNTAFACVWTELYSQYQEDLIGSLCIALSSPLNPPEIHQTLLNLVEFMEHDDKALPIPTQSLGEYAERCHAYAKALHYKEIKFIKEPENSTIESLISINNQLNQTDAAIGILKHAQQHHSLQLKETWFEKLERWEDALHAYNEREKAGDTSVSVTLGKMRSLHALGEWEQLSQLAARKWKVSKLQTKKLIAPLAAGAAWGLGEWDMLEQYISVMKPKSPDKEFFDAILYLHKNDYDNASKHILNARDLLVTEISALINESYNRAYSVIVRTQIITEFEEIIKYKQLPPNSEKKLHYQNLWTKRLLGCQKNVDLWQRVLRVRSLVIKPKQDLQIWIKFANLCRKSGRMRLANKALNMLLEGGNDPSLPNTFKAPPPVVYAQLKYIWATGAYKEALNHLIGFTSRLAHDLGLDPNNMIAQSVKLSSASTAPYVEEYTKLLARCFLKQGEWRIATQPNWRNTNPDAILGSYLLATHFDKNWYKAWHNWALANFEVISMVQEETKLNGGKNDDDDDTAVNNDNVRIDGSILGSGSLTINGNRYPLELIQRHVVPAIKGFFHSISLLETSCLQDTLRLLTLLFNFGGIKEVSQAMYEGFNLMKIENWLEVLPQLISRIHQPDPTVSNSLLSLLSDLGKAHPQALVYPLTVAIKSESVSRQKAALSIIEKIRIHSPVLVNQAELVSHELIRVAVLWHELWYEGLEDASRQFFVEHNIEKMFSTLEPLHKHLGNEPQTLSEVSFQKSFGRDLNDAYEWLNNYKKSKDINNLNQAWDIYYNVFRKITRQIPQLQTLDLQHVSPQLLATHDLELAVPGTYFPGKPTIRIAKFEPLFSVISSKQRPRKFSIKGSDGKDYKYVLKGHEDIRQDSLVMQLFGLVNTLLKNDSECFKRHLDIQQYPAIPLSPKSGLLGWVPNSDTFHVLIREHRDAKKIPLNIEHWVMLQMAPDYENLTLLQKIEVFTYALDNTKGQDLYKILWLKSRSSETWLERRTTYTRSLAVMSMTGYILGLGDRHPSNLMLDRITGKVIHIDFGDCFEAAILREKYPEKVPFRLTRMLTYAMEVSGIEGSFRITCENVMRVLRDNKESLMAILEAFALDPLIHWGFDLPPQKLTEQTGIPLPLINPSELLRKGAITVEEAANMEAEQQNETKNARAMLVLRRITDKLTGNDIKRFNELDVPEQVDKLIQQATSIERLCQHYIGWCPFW
TORC1 (TOR complex 1 kinase), sequence (P38873 whole entry partner): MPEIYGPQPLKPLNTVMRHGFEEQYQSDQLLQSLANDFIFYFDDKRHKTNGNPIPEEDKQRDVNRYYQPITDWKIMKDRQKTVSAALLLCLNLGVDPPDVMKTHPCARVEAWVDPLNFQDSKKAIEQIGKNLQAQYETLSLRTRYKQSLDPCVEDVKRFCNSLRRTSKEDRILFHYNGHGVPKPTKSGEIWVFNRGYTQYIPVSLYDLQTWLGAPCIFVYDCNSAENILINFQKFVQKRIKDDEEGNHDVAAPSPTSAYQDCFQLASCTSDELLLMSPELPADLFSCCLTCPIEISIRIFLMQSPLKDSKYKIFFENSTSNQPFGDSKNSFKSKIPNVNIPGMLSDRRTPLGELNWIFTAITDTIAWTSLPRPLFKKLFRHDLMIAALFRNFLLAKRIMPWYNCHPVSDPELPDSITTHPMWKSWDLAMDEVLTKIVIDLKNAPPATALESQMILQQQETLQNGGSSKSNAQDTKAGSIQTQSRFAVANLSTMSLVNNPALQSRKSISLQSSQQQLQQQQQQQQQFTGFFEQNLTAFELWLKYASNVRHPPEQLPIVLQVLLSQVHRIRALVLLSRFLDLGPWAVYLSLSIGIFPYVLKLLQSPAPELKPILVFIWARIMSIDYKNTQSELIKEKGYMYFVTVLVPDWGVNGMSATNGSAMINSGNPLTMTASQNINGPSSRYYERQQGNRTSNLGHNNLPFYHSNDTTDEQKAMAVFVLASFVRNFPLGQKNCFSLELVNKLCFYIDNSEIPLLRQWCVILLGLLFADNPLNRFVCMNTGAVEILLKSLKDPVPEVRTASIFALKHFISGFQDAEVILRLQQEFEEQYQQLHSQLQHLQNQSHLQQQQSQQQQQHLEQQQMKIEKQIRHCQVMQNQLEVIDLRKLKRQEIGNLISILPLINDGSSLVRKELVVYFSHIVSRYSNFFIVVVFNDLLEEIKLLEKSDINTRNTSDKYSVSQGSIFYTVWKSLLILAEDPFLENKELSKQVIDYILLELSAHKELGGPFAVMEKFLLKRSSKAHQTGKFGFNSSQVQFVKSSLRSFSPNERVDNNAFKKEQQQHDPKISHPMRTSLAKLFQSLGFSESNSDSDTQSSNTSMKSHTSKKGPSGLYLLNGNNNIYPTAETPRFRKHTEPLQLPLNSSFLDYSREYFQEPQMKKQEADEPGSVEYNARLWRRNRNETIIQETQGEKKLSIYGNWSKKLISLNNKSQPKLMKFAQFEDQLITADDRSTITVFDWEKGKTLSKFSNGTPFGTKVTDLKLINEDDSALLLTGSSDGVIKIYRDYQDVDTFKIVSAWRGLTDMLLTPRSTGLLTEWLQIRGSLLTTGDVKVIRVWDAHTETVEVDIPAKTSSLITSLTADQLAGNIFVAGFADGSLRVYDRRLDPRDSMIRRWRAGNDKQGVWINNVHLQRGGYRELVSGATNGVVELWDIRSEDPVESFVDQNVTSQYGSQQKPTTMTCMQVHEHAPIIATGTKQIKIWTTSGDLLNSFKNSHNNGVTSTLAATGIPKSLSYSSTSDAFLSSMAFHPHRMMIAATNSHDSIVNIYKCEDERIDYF

Compound: CNc1nc(N)c([N+](=O)[O-])c(Nc2cccc(F)c2)n1 [CID 3528206]
- IC50: ~150 nM
